Source: the NIST ThermoML archive (doi:10.1016/j.jct.2016.03.028)
Numbers after ± are expanded uncertainties.

What was measured:
[1] = xn = mol fraction of the nth substance listed; conditions: 328.15 K, Liquid; for speed of sound: 100 kPa, Frequency=3 MHz, Sing-around technique in a fixed-path interferometer; for mass density: 101.3 kPa, Vibrating tube method
[2] = refractive index (Na D-line) (dimensionless); xn = mol fraction of the nth substance listed; conditions: 100 kPa, Liquid, Standard Abbe refractometry

CCCOCCO [2-propoxyethanol] + CCOS(=O)(=O)[O-].CCn1cc[n+](C)c1
speed of sound ([1]; x2 = 0): 1195.8 ± 1.5 m/s
speed of sound ([1]; x2 = 0.0496): 1221.5 ± 1.5 m/s
speed of sound ([1]; x2 = 0.0901): 1241.4 ± 1.5 m/s
speed of sound ([1]; x2 = 0.1345): 1262.4 ± 1.5 m/s
speed of sound ([1]; x2 = 0.1738): 1280.5 ± 1.5 m/s
speed of sound ([1]; x2 = 0.2568): 1318.1 ± 1.6 m/s
speed of sound ([1]; x2 = 0.3477): 1358.5 ± 1.6 m/s
speed of sound ([1]; x2 = 0.4406): 1399.3 ± 1.6 m/s
speed of sound ([1]; x2 = 0.5477): 1445.6 ± 1.6 m/s
speed of sound ([1]; x2 = 0.6478): 1487.8 ± 1.6 m/s
speed of sound ([1]; x2 = 0.7729): 1537.5 ± 1.6 m/s
speed of sound ([1]; x2 = 0.8263): 1557 ± 1.6 m/s
speed of sound ([1]; x2 = 0.8757): 1573.9 ± 1.6 m/s
speed of sound ([1]; x2 = 0.9346): 1591.9 ± 1.6 m/s
mass density ([1]; x2 = 0): 881.49 ± 2 kg/m3
mass density ([1]; x2 = 0.0496): 910.28 ± 2 kg/m3
mass density ([1]; x2 = 0.0901): 932.1 ± 2 kg/m3
mass density ([1]; x2 = 0.1345): 954.51 ± 2 kg/m3
mass density ([1]; x2 = 0.1738): 973.08 ± 2 kg/m3
mass density ([1]; x2 = 0.2568): 1009.08 ± 2 kg/m3
mass density ([1]; x2 = 0.3477): 1044.05 ± 2 kg/m3
mass density ([1]; x2 = 0.4406): 1075.88 ± 2 kg/m3
mass density ([1]; x2 = 0.5477): 1108.69 ± 2 kg/m3
mass density ([1]; x2 = 0.6478): 1136.34 ± 2 kg/m3
mass density ([1]; x2 = 0.7729): 1167.58 ± 2 kg/m3
mass density ([1]; x2 = 0.8263): 1179.94 ± 2 kg/m3
mass density ([1]; x2 = 0.8757): 1190.88 ± 2 kg/m3
mass density ([1]; x2 = 0.9346): 1203.26 ± 2 kg/m3
refractive index ([2]; 298.15 K, x2 = 0): 1.41255 ± 0.002
refractive index ([2]; 298.15 K, x2 = 0.0496): 1.41807 ± 0.002
refractive index ([2]; 298.15 K, x2 = 0.0901): 1.42234 ± 0.002
refractive index ([2]; 298.15 K, x2 = 0.1345): 1.42679 ± 0.002
refractive index ([2]; 298.15 K, x2 = 0.1738): 1.43052 ± 0.002
refractive index ([2]; 298.15 K, x2 = 0.2568): 1.43781 ± 0.002
refractive index ([2]; 298.15 K, x2 = 0.3477): 1.44491 ± 0.002
refractive index ([2]; 298.15 K, x2 = 0.4406): 1.45131 ± 0.002
refractive index ([2]; 298.15 K, x2 = 0.5477): 1.45778 ± 0.002
refractive index ([2]; 298.15 K, x2 = 0.6478): 1.46309 ± 0.002
refractive index ([2]; 298.15 K, x2 = 0.7729): 1.46902 ± 0.002
refractive index ([2]; 298.15 K, x2 = 0.8263): 1.4714 ± 0.002
refractive index ([2]; 298.15 K, x2 = 0.8757): 1.47357 ± 0.002
refractive index ([2]; 298.15 K, x2 = 0.9346): 1.47615 ± 0.002
refractive index ([2]; 308.15 K, x2 = 0): 1.40814 ± 0.002
refractive index ([2]; 308.15 K, x2 = 0.0496): 1.41391 ± 0.002
refractive index ([2]; 308.15 K, x2 = 0.0901): 1.41835 ± 0.002
refractive index ([2]; 308.15 K, x2 = 0.1345): 1.42296 ± 0.002
refractive index ([2]; 308.15 K, x2 = 0.1738): 1.42682 ± 0.002
refractive index ([2]; 308.15 K, x2 = 0.2568): 1.43433 ± 0.002
refractive index ([2]; 308.15 K, x2 = 0.3477): 1.44162 ± 0.002
refractive index ([2]; 308.15 K, x2 = 0.4406): 1.44817 ± 0.002
refractive index ([2]; 308.15 K, x2 = 0.5477): 1.45477 ± 0.002
refractive index ([2]; 308.15 K, x2 = 0.6478): 1.4602 ± 0.002
refractive index ([2]; 308.15 K, x2 = 0.7729): 1.46625 ± 0.002
refractive index ([2]; 308.15 K, x2 = 0.8263): 1.46868 ± 0.002
refractive index ([2]; 308.15 K, x2 = 0.8757): 1.47089 ± 0.002
refractive index ([2]; 308.15 K, x2 = 0.9346): 1.4735 ± 0.002
refractive index ([2]; 318.15 K, x2 = 0): 1.40355 ± 0.002
refractive index ([2]; 318.15 K, x2 = 0.0496): 1.40953 ± 0.002
refractive index ([2]; 318.15 K, x2 = 0.0901): 1.41413 ± 0.002
refractive index ([2]; 318.15 K, x2 = 0.1345): 1.41891 ± 0.002
refractive index ([2]; 318.15 K, x2 = 0.1738): 1.4229 ± 0.002
refractive index ([2]; 318.15 K, x2 = 0.2568): 1.43065 ± 0.002
refractive index ([2]; 318.15 K, x2 = 0.3477): 1.43817 ± 0.002
refractive index ([2]; 318.15 K, x2 = 0.4406): 1.44492 ± 0.002
refractive index ([2]; 318.15 K, x2 = 0.5477): 1.45172 ± 0.002
refractive index ([2]; 318.15 K, x2 = 0.6478): 1.45729 ± 0.002
refractive index ([2]; 318.15 K, x2 = 0.7729): 1.46348 ± 0.002
refractive index ([2]; 318.15 K, x2 = 0.8263): 1.46595 ± 0.002
refractive index ([2]; 318.15 K, x2 = 0.8757): 1.46818 ± 0.002
refractive index ([2]; 318.15 K, x2 = 0.9346): 1.47081 ± 0.002
refractive index ([2]; 328.15 K, x2 = 0): 1.39908 ± 0.002
refractive index ([2]; 328.15 K, x2 = 0.0496): 1.4053 ± 0.002
refractive index ([2]; 328.15 K, x2 = 0.0901): 1.41007 ± 0.002
refractive index ([2]; 328.15 K, x2 = 0.1345): 1.41501 ± 0.002
refractive index ([2]; 328.15 K, x2 = 0.1738): 1.41912 ± 0.002
refractive index ([2]; 328.15 K, x2 = 0.2568): 1.42711 ± 0.002
refractive index ([2]; 328.15 K, x2 = 0.3477): 1.43483 ± 0.002
refractive index ([2]; 328.15 K, x2 = 0.4406): 1.44175 ± 0.002
refractive index ([2]; 328.15 K, x2 = 0.5477): 1.4487 ± 0.002
refractive index ([2]; 328.15 K, x2 = 0.6478): 1.45439 ± 0.002
refractive index ([2]; 328.15 K, x2 = 0.7729): 1.46071 ± 0.002
refractive index ([2]; 328.15 K, x2 = 0.8263): 1.46322 ± 0.002
refractive index ([2]; 328.15 K, x2 = 0.8757): 1.46549 ± 0.002
refractive index ([2]; 328.15 K, x2 = 0.9346): 1.46815 ± 0.002
